In patent EP0472573B1, “HERBICIDE RESISTANT MAIZE” (ZENECA LIMITED, priority 1989, dated 1990):
Read-outs that look alike come from different tables or passages of the source.

Experiments:
Type in all cases: biochemical, Zea mays
[1] = target: ALS enzyme extracted from Mutant 8 (heterozygous); assay: ALS enzyme assay, heterozygous Mutant 8; details: for IC50: ALS of heterozygous Mutant 8, read-out: ID50% (the source's name); for resistance group, Enzyme Assay: Mutant 8, groups Strong, Intermediate, Weak, Zero; for Fold Increase: fold increase in resistance vs wild type, heterozygous Mutant 8, 30 min
Experimental: (§1) Seeds of generation M₁BC₁ M₁BC₂ of the nine mutants were sprayed pre-emergence with the herbicide imazethapyr (PURSUIT) (Trade Mark) at a rate of 250 g/ha and grown in a growth chamber (16 hour day, 27°C; 8 hour night, 17°C). Plants were harvested after 11 days.
(§2) Four grams of leaf material were harvested from just above the first leaf axis and ground in a mortar and pestle in 20ml of a solution containing 40mM Tricine (Trade Mark), 10mM EDTA, 5mM pyruvate, 80 »M flavin adenine dinucleotide (FAD), 1mM dithiothreitol (DTT), pH 8, plus 0.8g Polyclar AT. The homogenate was pressed through four layers of muslin and centrifuged at 30,000g for 20 minutes.
(§3) The supernatant was brought to 65% saturation with ammonium sulphate, left to precipitate for 30 minutes and then centrifuged at 30.000g for 20 minutes. The pellet was resuspended in 2.5ml of 40mM Tricine, 10mM EDTA, 5mM pyruvate, 80»M FAD, 25% (v/v) glycerol, 1mM DTT, pH 8, and desalted into 3.5ml of 40mM Tricine, 10mM EDTA, 25% (v/v) glycerol, 1mM DTT, pH 8.
(§4) One hundred microlitres of the enzyme extract was used for each assay. Final reagent concentrations were: 120mM Tricine, 50mM pyruvate, 10mM MgCl₂, […], 93»M thiamine pyrophosphate (TPP), pH 8, in the presence or absence of a herbicide of interest, in a volume of 750 »l. Incubations were carried out at 37°C for 30 minutes. Reactions were stopped with 250»l of 1.84M sulphuric acid, and decarboxylation of the acetolactate carried out at 37°C for 75 minutes, or at 60°C for 30 minutes. Assay blanks had sulphuric acid added prior to the enzyme extract. To the samples and blanks 650»l of α-naphthol in 2.73M NaOH/0.16%(w/v) creatine were added followed by incubation at 37°C for 30 minutes. After centrifugation at 30,000g the optical density of the supernatant was read at 540nm.
(§5) The assay procedure described was carried out on ALS enzyme extracted from each of the nine mutants for the following herbicides: imazethapyr (PURSUIT) imazapyr (ARSENAL) imazaquin (SCEPTER) chlorsulfuron (GLEAN) chlorimuron (CLASSIC) […] (HARMONY) The enzyme activity graphs are given as Figures 3 to 8. In addition, homozygous lines of mutants 1 and 2 which were selected from generation M₁BC₁S₂, were also tested against the same group of herbicides and against representatives of the triazolopyrimidines and phenoxypyrimidines. The chemical structures of these herbicides are shown in Figure 2 of the accompanying drawings.
(§6) From the enzyme assay data it is possible to derive, as a measure of the degree of inhibition the factor ID50% for each mutant and for each herbicide. This factor is indicative of the herbicide concentration which gives 50% inhibition of the ALS activity in comparison with the wild-type control. It is also possible to derive the fold increase in resistance.

[2] = target: ALS enzyme extracted from Mutant 5 (heterozygous); assay: ALS enzyme assay, heterozygous Mutant 5; details: for IC50: ALS of heterozygous Mutant 5, read-out: ID50% (the source's name); for resistance group, Enzyme Assay: Mutant 5, groups Strong, Intermediate, Weak, Zero; for Fold Increase: fold increase in resistance vs wild type, heterozygous Mutant 5, 30 min
Experimental: as §1, §2, §3, §4, §5, §6

[3] = target: ALS extracted from leaves of MUTANT 2 (homozygous); assay: ALS enzyme assay, homozygous Mutant 2; details: for IC50: ALS of homozygous Mutant 2, read-out: ID50% Mutant; for Fold Increase: fold increase in resistance vs wild type, homozygous Mutant 2, 30 min
Experimental: as §2, §3, §4, §5, §6

[4] = target: ALS enzyme extracted from Mutant 10 (heterozygous); assay: ALS enzyme assay, heterozygous Mutant 10; details: for IC50: ALS of heterozygous Mutant 10, read-out: ID50% (the source's name); for resistance group, Enzyme Assay: Mutant 10, groups Strong, Intermediate, Weak, Zero; for Fold Increase: fold increase in resistance vs wild type, heterozygous Mutant 10, 30 min
Experimental: as §1, §2, §3, §4, §5, §6

[5] = target: ALS enzyme extracted from Mutant 6 (heterozygous); assay: ALS enzyme assay, heterozygous Mutant 6; details: for IC50: ALS of heterozygous Mutant 6, read-out: ID50% (the source's name); for resistance group, Enzyme Assay: Mutant 6, groups Strong, Intermediate, Weak, Zero; for Fold Increase: fold increase in resistance vs wild type, heterozygous Mutant 6, 30 min
Experimental: as §1, §2, §3, §4, §5, §6

[6] = target: ALS enzyme extracted from Mutant 2 (heterozygous); assay: ALS enzyme assay, heterozygous Mutant 2; details: for IC50: ALS of heterozygous Mutant 2, read-out: ID50% (the source's name); for resistance group, Enzyme Assay: Mutant 2, groups Strong, Intermediate, Weak, Zero; for Fold Increase: fold increase in resistance vs wild type, heterozygous Mutant 2, 30 min
Experimental: as §1, §2, §3, §4, §5, §6

[7] = target: ALS (acetolactate synthase), Wild type; assay: ALS enzyme assay, wild-type control; details: read-out: ID50% (the source's name)
Experimental: as §1, §2, §3, §4, §5, §6

[8] = target: ALS enzyme extracted from Mutant 1 (heterozygous); assay: ALS enzyme assay, heterozygous Mutant 1; details: for IC50: ALS of heterozygous Mutant 1, read-out: ID50% (the source's name); for resistance group, Enzyme Assay: Mutant 1, groups Strong, Intermediate, Weak, Zero; for Fold Increase: fold increase in resistance vs wild type, heterozygous Mutant 1, 30 min
Experimental: as §1, §2, §3, §4, §5, §6

[9] = target: ALS enzyme extracted from Mutant 7 (heterozygous); assay: ALS enzyme assay, heterozygous Mutant 7; details: for IC50: ALS of heterozygous Mutant 7, read-out: ID50% (the source's name); for resistance group, Enzyme Assay: Mutant 7, groups Strong, Intermediate, Weak, Zero; for Fold Increase: fold increase in resistance vs wild type, heterozygous Mutant 7, 30 min
Experimental: as §1, §2, §3, §4, §5, §6

[10] = target: ALS extracted from leaves of MUTANT 1 (homozygous); assay: ALS enzyme assay, homozygous Mutant 1; details: for IC50: ALS of homozygous Mutant 1, read-out: ID50% Mutant; for Fold Increase: fold increase in resistance vs wild type, homozygous Mutant 1
Experimental: as §2, §3, §4, §5, §6

[11] = target: ALS enzyme extracted from Mutant 9 (heterozygous); assay: ALS enzyme assay, heterozygous Mutant 9; details: for IC50: ALS of heterozygous Mutant 9, read-out: ID50% (the source's name); for resistance group, Enzyme Assay: Mutant 9, groups Strong, Intermediate, Weak, Zero; for Fold Increase: fold increase in resistance vs wild type, heterozygous Mutant 9, 30 min
Experimental: as §1, §2, §3, §4, §5, §6

[12] = target: ALS enzyme extracted from Mutant 3 (heterozygous); assay: ALS enzyme assay, heterozygous Mutant 3; details: for IC50: ALS of heterozygous Mutant 3, read-out: ID50% (the source's name); for resistance group, Enzyme Assay: Mutant 3, groups Strong, Intermediate, Weak, Zero; for Fold Increase: fold increase in resistance vs wild type, heterozygous Mutant 3, 30 min
Experimental: as §1, §2, §3, §4, §5, §6

Compound | IC50 [1] [µM] | resistance group, Enzyme Assay [1] | Fold Increase [1] | IC50 [2] [µM] | resistance group, Enzyme Assay [2] | Fold Increase [2] | IC50 [3] [µM] | Fold Increase [3] | IC50 [4] [µM] | resistance group, Enzyme Assay [4] | Fold Increase [4] | IC50 [5] [µM] | resistance group, Enzyme Assay [5] | Fold Increase [5] | IC50 [6] [µM] | resistance group, Enzyme Assay [6] | Fold Increase [6] | IC50 [8] [µM] | resistance group, Enzyme Assay [8] | Fold Increase [8] | also measured
CC(C)C1(C)N=C(c2ncccc2C(=O)O)NC1=O (stereo not shown) [Imazapyr, imazapyr] | > 1000 | Strong | >333 | 300 | Strong | 100 | 675 | 225 | 35 | Strong | 12 | 5 | Intermediate | 2 | 540 | Strong | 180 | > 1000 | Strong | >333 | IC50 ([7]; herbicide concentration giving 50% inhibition of ALS activity): 3 µM; IC50 [9]: 10 µM; resistance group, Enzyme Assay [9]: Intermediate; Fold Increase [9]: 3; IC50 [10]: > 1000 µM; Fold Increase ([10]; 30 min): >333; IC50 [11]: > 1000 µM; resistance group, Enzyme Assay [11]: Strong; Fold Increase [11]: >333; IC50 [12]: 4 µM; resistance group, Enzyme Assay [12]: Weak; Fold Increase [12]: 1
COC(=O)c1sccc1S(=O)(=O)NC(=O)Nc1nc(C)nc(OC)n1 [Thiacarburon, thiacarburon] | 0.04 | Weak | 1 | 0.34 | Intermediate | 8 | 0.36 | 8.5 | 0.39 | Intermediate | 9 | 0.045 | Weak | 1 | 0.32 | Intermediate | 8 | 0.055 | Weak | 1 | IC50 [7]: 0.0425 µM; IC50 [9]: 0.025 µM; resistance group, Enzyme Assay [9]: Zero; Fold Increase [9]: 1; IC50 [10]: 0.04 µM; Fold Increase [10]: nil; IC50 [11]: 0.045 µM; resistance group, Enzyme Assay [11]: Weak; Fold Increase [11]: 1; IC50 [12]: 0.085 µM; resistance group, Enzyme Assay [12]: Weak; Fold Increase [12]: 2
